In ChEMBL document CHEMBL1201862, “PubChem BioAssay data set” (2004):
The source made the active and inactive calls.

Assays:
[1] = biological target: Intestinal-type alkaline phosphatase (Homo sapiens, UniProt P09923); assay: inhibition of human intestinal alkaline phosphatase – biochemical, dose response (AID 488876); format: functional
[2] = biological target: Alkaline phosphatase, tissue-nonspecific isozyme (Homo sapiens, UniProt P05186); assay: TNAP enzyme inhibition by screening hits, dose response, selectivity assay for mouse IAP inhibitor project, biochemical, human TNAP, uHTS hits (AID 488906); format: functional
[3] = NIH3T3 cell viability loss – ATP luminescence, mouse fibroblasts, counter-screen, dose response (AID 2010); format: functional, cell-based;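 note: cells exposed to compound for about 90 hours before reading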
[4] = Trypanosoma cruzi growth suppression in host cells – NIH3T3 host cells, beta-gal luminescence, confirmation (AID 2044); format: functional, cell-based;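 note: intracellular parasites grown in NIH/3T3 mouse fibroblasts as host cells; luminescent beta-galactosidase reporter signal from transgenic T. cruzi replicating inside host cells; inhibitors lower the luminescence signal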
[5] = biological target: Intestinal-type alkaline phosphatase (Mus musculus, UniProt P24822); assay: PubChem AID 488785; format: functional
[6] = biological target: T1, Voltage-gated N-type calcium channel alpha-1B subunit/Amyloid beta A4 precursor protein-binding family A member 1 (Homo sapiens, UniProt Q00975+Q02410); format: protein assay
[7] = biological target: T2, Dual specificity protein phosphatase 6 (Rattus norvegicus, UniProt Q64346); assay: inhibition of rat DUSP6 enzyme activity – biochemical, in vitro, primary screen (AID 425)
T2 sequence (Q64346 whole entry): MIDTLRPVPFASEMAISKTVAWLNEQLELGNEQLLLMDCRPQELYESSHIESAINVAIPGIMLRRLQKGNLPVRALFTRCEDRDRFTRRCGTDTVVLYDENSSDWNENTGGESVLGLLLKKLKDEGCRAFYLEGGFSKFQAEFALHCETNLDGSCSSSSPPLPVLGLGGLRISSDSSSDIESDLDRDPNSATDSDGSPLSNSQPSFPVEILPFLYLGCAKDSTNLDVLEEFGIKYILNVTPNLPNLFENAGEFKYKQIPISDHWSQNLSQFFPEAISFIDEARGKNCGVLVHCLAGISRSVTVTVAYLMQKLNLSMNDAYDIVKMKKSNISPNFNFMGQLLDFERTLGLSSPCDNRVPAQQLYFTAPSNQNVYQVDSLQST

[8] = biological target: T3, Small ubiquitin-related modifier 1 (Homo sapiens, UniProt P63165); assay: SUMO1 protein-protein binding blockers, potency – biochemical, FRET, dose response (AID 624383); format: functional; conditions: read-out: IC50_Mean
[9] = biological target: Likely tRNA 2'-phosphotransferase (Candida albicans (strain SC5314 / ATCC MYA-2876) (Yeast), UniProt Q5A7N4); assay: inhibition of Candida TPT1 enzyme activity – biochemical, fluorescence polarization, dose response (AID 2160)
[10] = biological target: Guanyl-specific ribonuclease T1 (Aspergillus oryzae (strain ATCC 42149 / RIB 40), UniProt P00651); assay: inhibition of ribonuclease T1 activity – biochemical, fluorescence polarization, 1536-well, counter-screen for TPT1 inhibitor project, dose response (AID 2167)
[11] = biological target: T1, Voltage-gated N-type calcium channel alpha-1B subunit/Amyloid beta A4 precursor protein-binding family A member 1; format: protein assay; remark: listed apart in the source
[12] = biological target: T4, Dual specificity protein phosphatase 3 (Homo sapiens, UniProt P51452); assay: VHR1 phosphatase inhibitors, primary screen, biochemical, absorbance, uHTS (AID 1654)
[13] = biological target: T4, Dual specificity protein phosphatase 3; assay: VHR1 phosphatase inhibitors, biochemical (AID 1878)
SUMO-activating enzyme [14] = biological target: T5, SUMO-activating enzyme (Homo sapiens, UniProt Q9UBT2); assay: blockers of UBC9-mediated SUMO conjugation – biochemical, AlphaScreen, SUMOylation inhibitor project, confirmation (AID 2018); format: functional
SUMO-activating enzyme [15] = biological target: T5, SUMO-activating enzyme; assay: blockers of SAE1/SAE2–UBC9 SUMO transfer – biochemical, HTRF, uHTS, primary screen (AID 2006); format: protein-complex assay
[16] = biological target: T3, Small ubiquitin-related modifier 1; assay: SUMO1 protein interaction blockers, potency – biochemical, fluorescence polarization, uHTS hits, dose response (AID 624382); format: functional; conditions: read-out: IC50_Mean
Bcl-2-related protein A1 [17] = biological target: T6, Bcl-2-related protein A1 (Mus musculus, UniProt Q07440); assay: Bfl-1 binding inhibitors, SAR follow-up, biochemical, fluorescence polarization (AID 1070)
T6 sequence (Q07440 whole entry): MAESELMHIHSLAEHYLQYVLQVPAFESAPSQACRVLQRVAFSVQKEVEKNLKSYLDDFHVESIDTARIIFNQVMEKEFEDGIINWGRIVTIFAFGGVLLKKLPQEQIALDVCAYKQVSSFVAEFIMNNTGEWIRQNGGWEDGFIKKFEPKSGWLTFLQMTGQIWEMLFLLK

[18] = biological target: Nucleotide-binding oligomerization domain-containing protein 2 (Homo sapiens, UniProt Q9HC29); assay: inhibition of MDP-driven NOD2 NF-kB reporter – cell-based, set 3, SAR follow-up (AID 2799); format: functional
HEK293 = assay: SAR analysis of compounds that are cytotoxic to HEK293 - Set 3. [Related pubchem assays (depositor defined):AID1575, AID1578, AID1848, AID1849, AID2001, AID2333, AID2334, AID2335, AID2337, AID2469]; format: functional, cell-based; conditions: Homo sapiens
[19] = biological target: T7, Nucleotide-binding oligomerization domain-containing protein 1 (Homo sapiens, UniProt Q9Y239); assay: SAR analysis of compounds that inhibit NOD1 - Set 3. [Related pubchem assays (depositor defined):AID1566, AID1575, AID1578, AID1849, AID1852, AID2333, AID2335, AID2466]; format: functional
T7 sequence (Q9Y239 whole entry): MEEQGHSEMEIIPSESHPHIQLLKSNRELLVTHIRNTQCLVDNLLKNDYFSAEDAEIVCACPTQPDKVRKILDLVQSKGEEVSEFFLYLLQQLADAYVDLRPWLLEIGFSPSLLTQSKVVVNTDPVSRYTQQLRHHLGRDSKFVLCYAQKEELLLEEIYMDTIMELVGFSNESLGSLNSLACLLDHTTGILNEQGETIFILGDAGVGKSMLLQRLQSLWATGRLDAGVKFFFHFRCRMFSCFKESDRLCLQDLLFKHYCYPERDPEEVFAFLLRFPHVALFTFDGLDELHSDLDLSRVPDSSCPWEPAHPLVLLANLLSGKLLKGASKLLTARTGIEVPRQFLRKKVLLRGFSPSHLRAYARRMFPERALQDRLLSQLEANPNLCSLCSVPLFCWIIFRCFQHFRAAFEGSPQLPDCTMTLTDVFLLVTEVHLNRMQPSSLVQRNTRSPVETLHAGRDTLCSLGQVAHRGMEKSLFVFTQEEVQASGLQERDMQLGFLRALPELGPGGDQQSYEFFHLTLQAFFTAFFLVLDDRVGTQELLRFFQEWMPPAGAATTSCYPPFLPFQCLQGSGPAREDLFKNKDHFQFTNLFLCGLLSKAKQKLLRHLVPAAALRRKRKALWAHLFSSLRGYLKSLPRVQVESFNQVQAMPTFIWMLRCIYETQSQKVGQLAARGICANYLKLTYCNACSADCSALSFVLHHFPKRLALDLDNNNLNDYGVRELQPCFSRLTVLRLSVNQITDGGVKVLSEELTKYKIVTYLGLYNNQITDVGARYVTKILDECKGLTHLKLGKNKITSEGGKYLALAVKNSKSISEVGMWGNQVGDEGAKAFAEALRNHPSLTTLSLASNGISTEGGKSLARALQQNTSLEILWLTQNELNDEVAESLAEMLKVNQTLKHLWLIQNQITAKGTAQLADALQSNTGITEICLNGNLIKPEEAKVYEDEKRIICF

[20] = biological target: Glyceraldehyde-3-phosphate dehydrogenase (Homo sapiens, UniProt P04406)
Bcl-2-related protein A1 [21] = biological target: T6, Bcl-2-related protein A1; assay: small-molecule antagonists of Bfl-1/BH3 interaction – biochemical, TR-FRET, mouse Bfl-1, confirmation (AID 621);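 note: TR-FRET binding of GST-Bfl-1 to FITC-labelled Bid peptide via terbium antibody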
Tumor necrosis factor = Tumor necrosis factor (Homo sapiens, UniProt P01375); assay: analog potency on TNFa NF-kB signaling – cell-based, set 3, SAR follow-up (AID 2801); format: functional

T5 sequence (Q9UBE0 whole entry): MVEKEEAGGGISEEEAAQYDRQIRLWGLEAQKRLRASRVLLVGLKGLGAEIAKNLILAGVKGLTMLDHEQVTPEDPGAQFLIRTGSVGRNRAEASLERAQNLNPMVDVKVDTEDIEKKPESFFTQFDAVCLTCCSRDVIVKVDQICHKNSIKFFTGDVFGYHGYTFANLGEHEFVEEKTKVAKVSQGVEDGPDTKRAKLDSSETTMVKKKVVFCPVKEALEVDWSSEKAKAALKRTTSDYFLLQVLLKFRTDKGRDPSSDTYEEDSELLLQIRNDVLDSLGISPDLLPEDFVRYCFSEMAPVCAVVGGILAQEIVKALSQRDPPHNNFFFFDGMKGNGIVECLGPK
T5 sequence (Q9UBT2 whole entry): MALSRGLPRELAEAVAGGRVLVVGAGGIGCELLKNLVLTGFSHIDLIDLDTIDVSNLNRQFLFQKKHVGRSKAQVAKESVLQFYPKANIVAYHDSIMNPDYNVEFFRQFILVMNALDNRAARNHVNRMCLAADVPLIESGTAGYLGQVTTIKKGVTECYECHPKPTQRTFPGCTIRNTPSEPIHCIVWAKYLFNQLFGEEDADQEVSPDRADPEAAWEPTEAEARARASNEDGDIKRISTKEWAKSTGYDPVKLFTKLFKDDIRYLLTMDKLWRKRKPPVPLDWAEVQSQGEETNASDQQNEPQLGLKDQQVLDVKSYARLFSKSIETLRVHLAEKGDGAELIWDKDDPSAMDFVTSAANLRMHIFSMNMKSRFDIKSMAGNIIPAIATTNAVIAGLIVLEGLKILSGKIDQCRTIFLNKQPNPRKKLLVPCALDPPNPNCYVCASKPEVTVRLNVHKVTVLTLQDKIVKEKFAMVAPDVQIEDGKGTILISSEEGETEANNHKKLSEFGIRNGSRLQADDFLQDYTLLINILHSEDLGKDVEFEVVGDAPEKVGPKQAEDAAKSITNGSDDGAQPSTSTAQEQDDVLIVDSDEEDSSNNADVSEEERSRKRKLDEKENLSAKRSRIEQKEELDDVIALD
T1 sequence (Q00975 whole entry): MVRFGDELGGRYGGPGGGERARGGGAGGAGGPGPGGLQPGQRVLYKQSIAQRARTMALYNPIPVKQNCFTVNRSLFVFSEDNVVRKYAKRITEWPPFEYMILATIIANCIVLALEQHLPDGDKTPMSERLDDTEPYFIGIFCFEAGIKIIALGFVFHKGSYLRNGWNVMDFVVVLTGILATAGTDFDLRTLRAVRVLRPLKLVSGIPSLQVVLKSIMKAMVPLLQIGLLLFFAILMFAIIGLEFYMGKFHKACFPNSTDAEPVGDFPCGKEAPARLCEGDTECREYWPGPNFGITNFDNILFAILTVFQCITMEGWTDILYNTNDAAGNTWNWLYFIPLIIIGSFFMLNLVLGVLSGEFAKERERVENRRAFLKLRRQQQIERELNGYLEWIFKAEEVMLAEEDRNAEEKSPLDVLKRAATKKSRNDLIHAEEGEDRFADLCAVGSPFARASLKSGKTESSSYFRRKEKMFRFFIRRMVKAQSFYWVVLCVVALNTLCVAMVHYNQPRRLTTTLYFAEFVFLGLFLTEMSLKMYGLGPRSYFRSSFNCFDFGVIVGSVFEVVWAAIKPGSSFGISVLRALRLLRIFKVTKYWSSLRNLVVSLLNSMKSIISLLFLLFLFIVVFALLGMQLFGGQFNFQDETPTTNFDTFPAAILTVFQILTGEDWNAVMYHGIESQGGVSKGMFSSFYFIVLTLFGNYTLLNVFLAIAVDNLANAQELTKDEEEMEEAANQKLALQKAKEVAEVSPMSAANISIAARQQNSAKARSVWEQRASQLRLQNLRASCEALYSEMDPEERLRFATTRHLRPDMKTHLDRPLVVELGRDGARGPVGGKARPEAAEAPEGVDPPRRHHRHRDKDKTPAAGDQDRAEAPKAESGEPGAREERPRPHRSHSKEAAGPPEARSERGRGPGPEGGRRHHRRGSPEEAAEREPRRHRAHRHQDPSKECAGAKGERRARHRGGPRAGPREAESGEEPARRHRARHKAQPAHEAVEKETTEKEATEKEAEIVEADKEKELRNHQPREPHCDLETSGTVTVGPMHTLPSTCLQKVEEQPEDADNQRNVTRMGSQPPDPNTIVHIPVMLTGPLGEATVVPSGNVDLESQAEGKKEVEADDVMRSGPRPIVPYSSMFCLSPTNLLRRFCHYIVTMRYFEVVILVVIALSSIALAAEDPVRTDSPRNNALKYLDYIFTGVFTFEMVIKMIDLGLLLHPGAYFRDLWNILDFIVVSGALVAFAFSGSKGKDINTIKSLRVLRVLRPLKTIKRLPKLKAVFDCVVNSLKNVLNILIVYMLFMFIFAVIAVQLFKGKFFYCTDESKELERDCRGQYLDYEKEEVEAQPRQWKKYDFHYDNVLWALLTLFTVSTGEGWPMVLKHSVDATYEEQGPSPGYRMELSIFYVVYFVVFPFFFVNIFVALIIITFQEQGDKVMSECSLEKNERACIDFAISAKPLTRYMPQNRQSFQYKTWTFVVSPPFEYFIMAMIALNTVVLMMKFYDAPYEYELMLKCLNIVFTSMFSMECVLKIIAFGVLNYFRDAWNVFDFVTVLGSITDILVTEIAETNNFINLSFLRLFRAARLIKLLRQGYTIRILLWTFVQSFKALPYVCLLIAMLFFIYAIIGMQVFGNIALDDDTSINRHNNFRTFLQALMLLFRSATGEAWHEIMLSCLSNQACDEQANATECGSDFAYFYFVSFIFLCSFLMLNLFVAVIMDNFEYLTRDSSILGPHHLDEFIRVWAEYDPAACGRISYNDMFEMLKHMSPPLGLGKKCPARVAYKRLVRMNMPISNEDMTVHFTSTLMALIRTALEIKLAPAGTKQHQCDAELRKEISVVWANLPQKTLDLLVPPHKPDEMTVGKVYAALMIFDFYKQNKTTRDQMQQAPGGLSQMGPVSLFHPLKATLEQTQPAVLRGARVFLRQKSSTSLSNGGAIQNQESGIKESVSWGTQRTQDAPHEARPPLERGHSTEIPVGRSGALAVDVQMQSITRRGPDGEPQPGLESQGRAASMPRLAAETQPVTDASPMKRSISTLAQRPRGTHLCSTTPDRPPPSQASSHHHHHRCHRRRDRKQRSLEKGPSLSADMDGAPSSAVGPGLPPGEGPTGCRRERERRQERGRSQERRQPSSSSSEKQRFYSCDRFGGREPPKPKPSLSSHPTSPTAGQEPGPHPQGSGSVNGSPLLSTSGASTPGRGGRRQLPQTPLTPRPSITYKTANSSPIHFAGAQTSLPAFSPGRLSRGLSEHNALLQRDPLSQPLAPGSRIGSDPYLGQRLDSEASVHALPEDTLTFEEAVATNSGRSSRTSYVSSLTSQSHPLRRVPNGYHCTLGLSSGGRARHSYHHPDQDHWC
T1 sequence (Q02410 whole entry): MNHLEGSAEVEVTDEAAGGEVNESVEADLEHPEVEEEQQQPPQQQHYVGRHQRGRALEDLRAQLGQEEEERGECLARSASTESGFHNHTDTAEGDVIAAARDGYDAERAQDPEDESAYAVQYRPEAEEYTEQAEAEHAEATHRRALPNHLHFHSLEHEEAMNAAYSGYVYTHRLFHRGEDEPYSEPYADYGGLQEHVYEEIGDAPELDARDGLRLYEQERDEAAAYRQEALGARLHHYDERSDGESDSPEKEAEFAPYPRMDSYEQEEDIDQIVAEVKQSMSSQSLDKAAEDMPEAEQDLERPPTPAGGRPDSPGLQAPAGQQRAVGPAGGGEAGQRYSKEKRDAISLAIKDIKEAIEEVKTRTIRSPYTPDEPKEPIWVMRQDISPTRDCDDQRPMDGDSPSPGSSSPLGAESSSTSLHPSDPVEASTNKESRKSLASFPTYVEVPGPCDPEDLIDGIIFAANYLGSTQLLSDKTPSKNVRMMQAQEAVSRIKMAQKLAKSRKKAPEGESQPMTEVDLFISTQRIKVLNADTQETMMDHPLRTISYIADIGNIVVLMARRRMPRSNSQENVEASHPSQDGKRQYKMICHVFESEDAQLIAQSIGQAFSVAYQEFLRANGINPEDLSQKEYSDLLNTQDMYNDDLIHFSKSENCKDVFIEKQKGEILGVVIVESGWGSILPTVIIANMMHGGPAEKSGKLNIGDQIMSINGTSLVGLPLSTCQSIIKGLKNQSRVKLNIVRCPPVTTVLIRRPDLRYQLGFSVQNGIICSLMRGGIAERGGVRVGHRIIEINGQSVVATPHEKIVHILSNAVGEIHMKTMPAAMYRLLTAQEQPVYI
T4 sequence (P51452 whole entry): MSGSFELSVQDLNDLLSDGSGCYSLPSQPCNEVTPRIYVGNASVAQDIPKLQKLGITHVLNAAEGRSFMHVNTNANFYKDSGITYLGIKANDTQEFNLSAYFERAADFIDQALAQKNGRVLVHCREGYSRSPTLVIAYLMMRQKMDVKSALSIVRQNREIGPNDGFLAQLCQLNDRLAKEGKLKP
T3 sequence (P63165 whole entry): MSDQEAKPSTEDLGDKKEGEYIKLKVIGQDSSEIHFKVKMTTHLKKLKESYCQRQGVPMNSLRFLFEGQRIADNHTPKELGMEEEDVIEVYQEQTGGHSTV
Chain of Intestinal-type alkaline phosphatase (Homo sapiens, UniProt P09923) (P09923 whole entry): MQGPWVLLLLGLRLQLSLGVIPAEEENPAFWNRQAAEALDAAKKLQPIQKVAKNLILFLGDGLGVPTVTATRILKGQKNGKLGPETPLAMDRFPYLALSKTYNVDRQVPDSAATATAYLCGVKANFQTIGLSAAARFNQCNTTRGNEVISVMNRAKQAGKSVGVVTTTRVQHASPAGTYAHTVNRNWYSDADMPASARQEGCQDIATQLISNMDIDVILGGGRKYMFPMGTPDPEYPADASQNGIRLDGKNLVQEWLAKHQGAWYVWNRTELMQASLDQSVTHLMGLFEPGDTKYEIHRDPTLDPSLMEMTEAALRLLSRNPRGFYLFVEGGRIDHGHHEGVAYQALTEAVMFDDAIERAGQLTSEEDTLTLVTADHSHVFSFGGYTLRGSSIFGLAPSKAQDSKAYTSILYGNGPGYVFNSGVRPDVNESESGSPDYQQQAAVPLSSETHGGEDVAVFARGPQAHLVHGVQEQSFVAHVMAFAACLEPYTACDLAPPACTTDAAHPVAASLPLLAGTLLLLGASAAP

COc1cc(NC(S)=NCCC(c2ccccc2)c2ccccc2)cc(OC)c1
IC50 [1]: > 100 µM (inactive)
IC50 [2]: 12.2 µM (active)
EC50 [3]: > 60 µM (not active)
EC50 [4]: 2.02 µM (active)
IC50 [5]: 13.7 µM (active)

Cc1cc(C)n(Cc2ccc(C(=O)N/N=C/c3ccc(-c4ccc([N+](=O)[O-])cc4)o3)o2)n1
IC50 [6]: 14 µM (active)
IC50 [7]: 40 µM (active)
IC50 [8]: 3.17 µM (active)
IC50 [9]: 3.55 µM (active)
IC50 [10]: > 55.7 µM (not active)
IC50 [11]: 20.2 µM (active)
IC50 [12]: 123 µM (inactive)
IC50 [13]: 6.64 µM (active)
IC50 (SUMO-activating enzyme [14]): 5.62 µM (active)
IC50 (SUMO-activating enzyme [15]): 33 µM (active)
IC50 [16]: > 66.6 µM (inactive)

Nc1cc(-c2ccccc2)nn1S(=O)(=O)c1c(F)c(F)c(F)c(F)c1F
IC50 (Bcl-2-related protein A1 [17]): > 100 µM (not active)
IC50 [18]: > 20 µM (inactive)
IC50 (HEK293): > 20 µM (inactive)
IC50 [19]: > 20 µM (inactive)
IC50 [20]: > 100 µM (not active)
IC50 (Bcl-2-related protein A1 [21]): 5.83 µM (active)
IC50 (Tumor necrosis factor): > 20 µM (inactive)
